Drawing on patent US10968193B2, “Antidiabetic bicyclic compounds” (Merck Sharp & Dohme Corp., priority 2014, dated 2021), this text covers EC50 for 45 compounds.

This assay addresses T1, human GPR40 (Homo sapiens, UniProt O14842).
T1 construct: expressed in transfected cells; host or cells: HEK cells stably expressing the aequorin reporter
Description: Inositol Phosphate Turnover (IP1) Assay 3. Type of assay: cell-based. Conditions: HEK cells stably expressing human GPR40. An outline of the steps: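 HEK cells stably expressing human GPR40, plated 16 h before, were treated with compound for 60 min at 37 °C in stimulation buffer. IP1 measured by HTRF (665/620 nm ratio) against an IP1 standard curve; activity normalized to a reference compound, EC50 from 4-parameter fit.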

The term EC50 denotes the concentration needed to bring the measured effect to its halfway point. Read a high EC50 as lower potency in that assay.

T1 sequence (O14842 whole entry): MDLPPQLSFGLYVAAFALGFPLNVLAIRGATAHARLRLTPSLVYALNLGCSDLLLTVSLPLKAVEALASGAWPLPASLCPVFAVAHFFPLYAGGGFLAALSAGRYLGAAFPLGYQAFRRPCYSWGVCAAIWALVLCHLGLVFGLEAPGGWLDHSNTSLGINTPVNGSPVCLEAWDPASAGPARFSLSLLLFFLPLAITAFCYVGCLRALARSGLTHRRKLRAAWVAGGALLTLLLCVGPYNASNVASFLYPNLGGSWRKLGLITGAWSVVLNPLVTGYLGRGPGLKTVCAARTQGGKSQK

Compound `CCOc1cc(-c2ccc(C3CCc4ccc([C@H](C5CC5)[C@H](C)C(=O)O)cc4O3)c(CN(C)C(C)(C)C)c2)c(F)cn1` (single isomer, unassigned) [Example 132b] gave an EC50 of 106 nM.

On to `COc1cc(-c2ccc(C3CCc4ccc([C@H](C5CC5)[C@H](C)C(=O)O)cc4O3)c(CN3CCC[C@@H]3C)c2)c(F)cn1` (single isomer, unassigned) [Example 129b], for which the EC50 was determined as 36 nM.

Compound `COc1cc(-c2ccc(C3CCc4ccc([C@H](C5CC5)[C@H](C)C(=O)O)c(F)c4O3)cc2CN2CCCC2)c(F)cn1` (single isomer, unassigned) [Example 198] had an EC50 of 4.7 nM.

Compound `CCN(CC)Cc1cc(C2CCc3ccc([C@H](C4CCC4)[C@H](C)C(=O)O)cc3O2)ccc1-c1cc(OC)ncc1F` (single isomer, unassigned) [Example 98] yielded an EC50 of 0.09 nM.

The compound `COc1cc(-c2ccc(C3CCc4ccc([C@H](C5CC5)[C@H](C)C(=O)O)c(F)c4O3)cc2CN2CCCC2)c(F)cn1` (single isomer, unassigned) [Example 199] came in with an EC50 of 5.7 nM.

With `COc1cc(-c2cc(F)c(C3CCc4ccc([C@H](C5CC5)[C@H](C)C(=O)O)cc4O3)cc2CN(C(C)C)C(C)C)ccn1` (single isomer, unassigned) [Example 184], the EC50 was 0.73 nM.

Turning to `COc1cc(-c2ccc(C3CCc4ccc([C@H](C5CC5)[C@H](C)C(=O)O)cc4O3)cc2CN(C(C)C)C(C)(C)C)c(F)cn1` (stereo partly drawn) [Example 229], the EC50 stood at 0.07 nM.

The compound `COc1cc(-c2ccc([C@@H]3CCc4ccc([C@H](C5CC5)[C@H](C)C(=O)O)cc4O3)cc2CNC(C)C)c(F)cn1` [Example 232] gave an EC50 of 36 nM.

For the compound `COc1cc(-c2ccc(C3CCc4ccc([C@H](C5CC5)[C@H](C)C(=O)O)cc4O3)cc2CN2CCC3CC32)c(F)cn1` (single isomer, unassigned) [Example 256b], the EC50 is 0.9 nM.

With `COc1cc(-c2ccc(C3CCc4ccc([C@H](C5CC5)[C@H](C)C(=O)O)cc4O3)cc2CN2CC3CC3C2)c(C#N)cn1` (stereo partly drawn) [Example 191, (2S, 3R)-3-(2-(3-(3-azabicyclo[3.1.0]hexan-3-ylmethyl)-4-(5-cyano-2-methoxypyridin-4-yl)phenyl)chroman-7-yl)-3-cyclopropyl-2-methylpropanoic acid], the EC50 was 1.9 nM.

Compound `COc1cc(-c2ccc(C3CCc4ccc([C@H](C5CCC5)[C@H](C)C(=O)O)cc4O3)cc2CN2CCCCC23CC3)c(F)cn1` (single isomer, unassigned) [Example 106] registered an EC50 of 0.2 nM.

Turning to `CCOc1cc(-c2ccc(C3CCc4ccc([C@H](C5CC5)[C@H](C)C(=O)O)cc4O3)cc2CN(CC)CC)c(Cl)cn1` (single isomer, unassigned) [Example 215], the EC50 was found to be 6 nM.

For the compound `COc1cc(-c2ccc(C3CCc4ccc([C@H](C5CCC5)[C@H](C)C(=O)O)cc4O3)cc2CN2CCCC2C)c(F)cn1` (stereo partly drawn) [Example 102], it took 0.07 nM to reach a half-maximal effect (EC50).

Compound `COc1cc(-c2ccc(C3CCc4ccc([C@H](C5CC5)[C@H](C)C(=O)O)c(F)c4O3)cc2CN2CCC[C@@H]2C)c(F)cn1` (single isomer, unassigned) [Example 212] had an EC50 of 3.1 nM.

In turn, `COc1cc(-c2ccc(C3CCc4ccc([C@H](C5CC5)[C@H](C)C(=O)O)cc4O3)cc2CN(C)C(C)(C)C)ccn1` (stereo partly drawn) [Example 234] came in with an EC50 of 21 nM.

In turn, `CCN(C(C)C)C(C)c1cc(C2CCc3ccc([C@H](C4CC4)[C@H](C)C(=O)O)cc3O2)ccc1-c1ccnc(OC)c1` (single isomer, unassigned) [Example 247] registered an EC50 of 1.3 nM.

Regarding `COc1cc(-c2ccc(C3CCc4ccc([C@H](C5CC5)[C@H](C)C(=O)O)cc4O3)c(CN(C)C(C)(C)C)c2)ccn1` (single isomer, unassigned) [Example 114b], the EC50 is 250 nM.

`CCN(CC)Cc1cc(C2CCc3ccc([C@H](C4CC4)[C@H](C)C(=O)O)cc3O2)ncc1-c1cc(OC)ncc1F` (single isomer, unassigned) [Example 87]: the EC50 came out at 6.6 nM.

For `COc1cc(-c2ccc([C@@H]3CCc4ccc([C@H](C5CC5)[C@H](C)C(=O)O)cc4O3)cc2CN(C)C(C)(C)C)c(F)cn1` [Example 226, Sodium (2S,3R)-3-((S)-2-(3-((tert-butyl(methyl)amino)methyl)-4-(5-fluoro-2-methoxypyridin-4-yl)phenyl)chroman-7-yl)-3-cyclopropyl-2-methylpropanoate], the EC50 was determined as 1.1 nM.

On to `CCN(CC)C(C)c1cc(C2CCc3ccc([C@H](C4CC4)[C@H](C)C(=O)O)cc3O2)ccc1-c1cc(OC)ncc1F` (single isomer, unassigned) [Example 245], for which a half-maximal response (EC50) required 5.4 nM.

Compound `COc1cc(-c2ccc(C3CCc4ccc([C@H](C5CC5)[C@H](C)C(=O)O)cc4O3)c(CN(C)C(C)(C)C)c2)ccn1` (mixture of isomers) [Example 114] came in with an EC50 of 5 nM.

In the case of `COc1cc(-c2ccc(C3CCc4ccc([C@H](C5CC5)[C@H](C)C(=O)O)cc4O3)cc2CN(C)C(C)C)ccn1` (stereo partly drawn) [Example 286], the EC50 amounted to 11 nM.

Consider `COc1cc(-c2ccc(C3CCc4ccc([C@H](C5CC5)[C@H](C)C(=O)O)cc4O3)c(CN3[C@H](C)CC[C@H]3C)c2)c(F)cn1` (stereo partly drawn) [Example 127], for which the EC50 worked out at 0.2 nM.

`COc1cc(-c2ccc(C3CCc4ccc([C@H](C5CC5)[C@H](C)C(=O)O)cc4O3)c(F)c2CN2CCCC2)c(F)cn1` (single isomer, unassigned) [Example 220] returned an EC50 of 7.2 nM.

The compound `COc1cc(-c2ccc(C3CCc4ccc([C@H](C5CC5)[C@H](C)C(=O)O)cc4O3)cc2CN2[C@H](C)CC[C@@H]2C)c(F)cn1` (stereo partly drawn) [Example 251] had an EC50 of 0.3 nM.

Compound `COc1cc(-c2ccc(C3CCc4ccc([C@H](C5CC5)[C@H](C)C(=O)O)cc4O3)cc2CN(C)C(C)C)c(F)cn1` (stereo partly drawn) [Example 254] had an EC50 of 1 nM.

In turn, `COc1cc(-c2cc(F)c(C3CCc4ccc([C@H](C5CC5)[C@H](C)C(=O)O)cc4O3)cc2CN2CCCCC23CC3)ccn1` (single isomer, unassigned) [Example 187] displayed an EC50 of 0.4 nM.

`COc1cc(-c2ccc(C3CCc4ccc([C@H](C5CC5)[C@H](C)C(=O)O)cc4O3)c(CN3CCCC3)c2)ccn1` (single isomer, unassigned) [Example 112a] showed an EC50 of 2.3 nM.

Turning to `COc1cc(-c2ccc(C3CCc4ccc([C@H](C5CC5)[C@H](C)C(=O)O)cc4O3)c(CN3[C@H](C)CC[C@@H]3C)c2)ccn1` (single isomer, unassigned) [Example 122a], the EC50 turned out to be 3.3 nM.

As for `COc1cc(-c2ccc(C3CCc4ccc([C@H](C5CC5)[C@H](C)C(=O)O)cc4O3)c(CN3[C@H](C)CC[C@H]3C)c2)ccn1` (single isomer, unassigned) [Example 116c], the midpoint of the response, the EC50, lay at 1000 nM.

`COc1cc(-c2ccc(C3CCc4ccc([C@H](C5CC5)[C@H](C)C(=O)O)cc4O3)cc2CN2CCCCC2(C)C)ccn1` (stereo partly drawn) [Example 242] showed an EC50 of 3.1 nM.

As for `COc1cc(-c2ccc(C3CCc4ccc([C@H](C5CC5)[C@@H](C)C(=O)O)cc4O3)cc2CN(C)C(C)(C)C)c(F)cn1` (stereo partly drawn) [Example 227], the EC50 was found to be 14 nM.

Compound `COc1cc(-c2ccc(C3CCc4ccc([C@H](C5CC5)[C@H](C)C(=O)O)cc4O3)c(CN3CCCC3)c2)c(F)cn1` (single isomer, unassigned) [Example 123a] came in with an EC50 of 91 nM.

Compound `COc1cc(-c2ccc(C3CCc4ccc([C@H](C5CC5)[C@H](C)C(=O)O)cc4O3)c(CN3CCCC3(C)C)c2)ccn1` (single isomer, unassigned) [Example 111b] displayed an EC50 of 0.4 nM.

As for `CCN(CC)Cc1cc(C2CCc3ccc([C@H](C4CC4)[C@H](C)C(=O)O)cc3O2)ccc1-c1ccnc(OC)c1` (single isomer, unassigned) [Example 283], the response was half-maximal at 4.4 nM (EC50).

For `CCN(CC)Cc1nc(C2CCc3ccc([C@H](C4CC4)[C@H](C)C(=O)O)cc3O2)ccc1-c1cc(OC)ncc1F` (single isomer, unassigned) [Example 88], the EC50 is 6.7 nM.

Regarding `CCOc1cc(-c2ccc(C3CCc4ccc([C@H](C5CC5)[C@H](C)C(=O)O)cc4O3)cc2CN(CC)CC)c(F)cn1` (single isomer, unassigned) [Example 172, (2S, 3R)-3-cyclopropyl-3-((S or R)-2-(3-((diethylamino)methyl)-4-(2-ethoxy-5-fluoropyridin-4-yl)phenyl)chroman-7-yl)-2-methylpropanoic acid], a half-maximal effect (EC50) was put at 2.3 nM.

Regarding `COc1cc(-c2ccc(C3CCc4ccc([C@H](C5CC5)[C@H](C)C(=O)O)cc4O3)cc2CN2[C@@H](C)CCC[C@@H]2C)c(F)cn1` (stereo partly drawn) [Example 231], a half-maximal response (EC50) required 0.16 nM.

Turning to `CCN(Cc1cc([C@H]2CCc3ccc([C@H](C4CC4)[C@H](C)C(=O)O)cc3O2)ccc1-c1cc(OC)ncc1F)C(C)C` [Example 139], the midpoint of the response, the EC50, lay at 0.5 nM.

In turn, `COc1cc(-c2ccc(C3CCc4ccc([C@H](C5CC5)[C@H](C)C(=O)O)cc4O3)c(CN(C)C(C)(C)C)c2)c(F)cn1` (single isomer, unassigned) [Example 125b] came in with an EC50 of 12 nM.

On to `COc1cc(-c2ccc(C3CCc4ccc([C@H](C5CC5)[C@H](C)C(=O)O)c(F)c4O3)cc2CN2[C@H](C)CC[C@H]2C)c(F)cn1` (single isomer, unassigned) [Example 209], for which the EC50 came to 0.5 nM.

`COc1cc(-c2ccc(C3CCc4ccc([C@H](C5CC5)[C@H](C)C(=O)O)cc4O3)nc2CN(C(C)C)C(C)C)ccn1` (stereo partly drawn) [Example 91] showed an EC50 of 467 nM.

As to `CCC1CCCCN1Cc1cc(C2CCc3ccc([C@H](C4CC4)[C@H](C)C(=O)O)cc3O2)ccc1-c1cc(OC)ncc1F` (single isomer, unassigned) [Example 273b], the midpoint of the response, the EC50, lay at 0.3 nM.

Regarding `COc1cc(-c2ccc(C3CCc4ccc([C@H](C5CC5)[C@H](C)C(=O)O)cc4O3)c(CN3[C@H](C)CC[C@H]3C)c2)ccn1` (single isomer, unassigned) [Example 116a], the EC50 was determined as 1.7 nM.

Turning to `CCC1CCCN1Cc1cc(C2CCc3ccc([C@H](C4CC4)[C@H](C)C(=O)O)cc3O2)ccc1-c1cc(OC)ncc1F` (single isomer, unassigned) [Example 267a], the EC50 was 0.7 nM.
